Results published in patent US20190076431A1, “SRC INHIBITOR TO BLOCK CELL SURFACE GRP78 EXPRESSION” (University of Southern California, priority 2016, published 2019).

Assays:
[1] = tested on: csGRP78; test: csGRP78 by flow cytometry in CD138+ MM cells from the bone marrow of a MM patient; format: cell-based, human; conditions: DAS 0.3 μM for 24 hr
Description: FIG. 11. […] (A) Peripheral blood mononuclear cells were isolated from the bone marrow of a MM patient and sorted into CD138+ (blue) and CD138− (non-malignant) cells (orange) and csGRP78 was measured by flow cytometry, with RPMI-8226 MM cell line (red) analyzed in parallel. (B) CD138+ MM cells were treated with DAS (0.3 μM) for 24 hr and assayed for csGRP78 by flow cytometry.

[2] = tested on: cell surface GRP78; test: Biotinylated cell surface protein levels after DAS treatment of H929 MM cells (Western blot); format: cell-based; conditions: DAS 1 μM for the indicated time, biotinylated cell surface proteins
Description: Cell Surface Protein Biotinylation and Avidin Pull-down—Following treatment, the cells were washed with cold PBS 3 times. EZ-Link Sulfo-NHS-SS-Biotin (Thermo Scientific, Waltham, Mass.) in PBS at 0.5 mg/ml was added and the cells were gently shaken at 4° C. for 30 min. To stop the biotinylation reaction, the biotin solution was removed, and the cells were rinsed three times with the quenching buffer containing Tris-Cl pH 7.4 in cold PBS. Then cells were rinsed with cold PBS and subjected to either sodium carbonate extraction (see below) or radioimmune precipitation (RIPA) lysis. The RIPA lysis buffer was supplemented with protease and phosphatase inhibitor cocktail (Thermo Scientific). Protein concentrations were determined by Bradford assay (Bio-Rad Lab, Hercules, Calif.). Part of the lysate was saved as whole cell lysate for Western blots to measure the total level of the target proteins. To purify the surface proteins, the remaining lysates were mixed with High Capacity NeutrAvidin Agarose Resin (Thermo Scientific) at room temperature for 1 h, and the resin was washed by RIPA buffer and centrifuged at 3,000× g for 1 min ten times. […]
Immunoblot Analysis—Protein samples were subjected to 10% or 15% SDS-PAGE and Western blot analysis as previously described (9). […] Protein levels were visualized and quantitated by ChemiDoc™ XRS+ Imager (Bio-Rad Lab) or LI-COR Odyssey (LI-COR Biosciences).

[3] = Enhancement of proteasome based therapy (summary statement)

Compound: Cc1nc(Nc2ncc(C(=O)Nc3c(C)cccc3Cl)s2)cc(N2CCN(CCO)CC2)n1 [Dasatinib, dasatinib]
- csGRP78 by flow cytometry [1]: Suppresses Cell Surface GRP78
- cell surface GRP78 expression [2]: Suppresses Cell Surface GRP78
- effect on proteasome based therapy [3]: enhance proteasome based therapy
